Experimental data: patent US9315503B2, “Kinase inhibitors” (CHIESI FARMACEUTICI S.p.A., priority 2011, dated 2016)
Counter-ions that a name gives are not always drawn.

Experiments:
p38alpha = target: T1, p38alpha (Homo sapiens, UniProt Q16539); experiment: P38Alpha enzyme inhibition assay (Alphascreen kinase activity assay); format: biochemical; settings: 100 pM p38alpha, 250 μM ATP, 2 hours pre-incubation at 25° C., read-out: p38α inhibition (IC50 values)
T1 construct: purchased Invitrogen PV3304
T1 sequence (Q16539 whole entry): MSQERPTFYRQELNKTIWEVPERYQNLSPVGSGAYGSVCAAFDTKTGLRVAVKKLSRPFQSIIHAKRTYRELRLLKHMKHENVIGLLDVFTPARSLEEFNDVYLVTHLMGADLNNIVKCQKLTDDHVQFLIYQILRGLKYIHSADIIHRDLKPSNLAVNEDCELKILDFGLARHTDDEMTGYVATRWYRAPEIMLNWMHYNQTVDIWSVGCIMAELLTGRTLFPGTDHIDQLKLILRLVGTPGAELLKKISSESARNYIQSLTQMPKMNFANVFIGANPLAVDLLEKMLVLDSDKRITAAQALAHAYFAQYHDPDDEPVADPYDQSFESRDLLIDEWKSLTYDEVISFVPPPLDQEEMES
In short: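 AlphaScreen read-out: after an EDTA stop, an anti-phospho-ATF2 antibody with Protein A acceptor and donor beads measured substrate phosphorylation. Compounds sat 2 h at 25°C with 100 pM p38α and 0.3 µg/ml ATF-2 fusion protein (pH 7.5, 1% DMSO) before 250 µM ATP was added for 1 h. IC50 from dose-response.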

[1] = tested on: LPS-stimulated TNFα release from PBMCs; experiment: LPS-stimulated PBMC TNFα release assay; format: cell-based; settings: inhibition of TNFα release, human PBMCs, LPS 10 ng/ml, 18 h, ELISA, read-out: p38α inhibition (IC50 values)
In short: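 TNFα in supernatants measured by ELISA after 18 h LPS (10 ng/ml) challenge of human PBMCs given 1 h compound pretreatment at 37 °C in medium with 1% FBS. Percent inhibition versus control release fitted to dose-response curves for IC50; at least three independent runs.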

IC50 (p38alpha) | Compound | IC50 [1]
< 10 nM | Cc1ccc(-n2nc(C(C)(C)C)cc2NC(=O)N[C@H]2CC[C@@H](Oc3ccc4nnc([C@@H]5CCCN(C)C5)n4c3)c3ccccc32)cc1 [Example 89, 1-(5-tert-Butyl-2-p-tolyl-2H-pyrazol-3-yl)-3-{(1S,4R)-4-[3-((R)-1-methyl-piperidin-3-yl)-[1,2,4]triazolo[4,3-a]pyridin-6-yloxy]-1,2,3,4-tetrahydro-naphthalen-1-yl}-urea] | < 10 nM
< 10 nM | Cc1ccc(-n2nc(C(C)(C)C)cc2NC(=O)N[C@H]2CC[C@@H](Oc3ccc4nnc(C(C)(C)N5CCCC5)n4c3)c3ccccc32)cc1 [Example 80, 1-(5-tert-Butyl-2-p-tolyl-2H-pyrazol-3-yl)-3-{(1S,4R)-4-[3-(1-methyl-1-pyrrolidin-1-yl-ethyl)-[1,2,4]triazolo[4,3-a]pyridin-6-yloxy]-1,2,3,4-tetrahydro-naphthalen-1-yl}-urea] | < 10 nM
< 10 nM | CC(C)(C)c1cc(NC(=O)N[C@H]2CC[C@@H](Oc3ccc4nnc(N5CCCCC5)n4c3)c3ccccc32)n(-c2cnn(CCN3CCOCC3)c2)n1 [Example 112, 1-[3-tert-Butyl-1′-(2-morpholin-4-yl-ethyl)-1′H-[1,4′]bipyrazolyl-5-yl]-3-[(1S,4R)-4-(3-piperidin-1-yl-[1,2,4]triazolo[4,3-a]pyridin-6-yloxy)-1,2,3,4-tetrahydro-naphthalen-1-yl]-urea formate salt] | < 10 nM
< 10 nM | CN(C)CCn1cc(-n2nc(C(C)(C)C)cc2NC(=O)N[C@H]2CC[C@@H](Oc3ccc4nnc(N5CCCCC5)n4c3)c3ccccc32)cn1 [Example 108, 1-[3-tert-Butyl-1′-(2-dimethylamino-ethyl)-1′H-[1,4′]bipyrazolyl-5-yl]-3-[(1S,4R)-4-(3-piperidin-1-yl-[1,2,4]triazolo[4,3-a]pyridin-6-yloxy)-1,2,3,4-tetrahydro-naphthalen-1-yl]-urea] | < 10 nM
< 10 nM | Cc1ccc(-n2nc(C(C)(C)C)cc2NC(=O)N[C@H]2CC[C@@H](Oc3ccc4nnc(CCN5CCCC5)n4c3)c3ccccc32)cc1 [Example 1, 1-(5-tert-Butyl-2-p-tolyl-2H-pyrazol-3-yl)-3-{(1S,4R)-4-[3-(2-pyrrolidin-1-yl-ethyl)-[1,2,4]triazolo[4,3-a]pyridin-6-yloxy]-1,2,3,4-tetrahydro-naphthalen-1-yl}-urea] | 10 to 100 nM
< 10 nM | CC(C)(C)c1cc(NC(=O)N[C@H]2CC[C@@H](Oc3ccc4nnc(N5CCCCC5)n4c3)c3ccccc32)n(-c2cccc(CN3CCC(O)CC3)c2)n1 [Example 52, 1-{5-tert-Butyl-2-[3-(4-hydroxy-piperidin-1-ylmethyl)-phenyl]-2H-pyrazol-3-yl}-3-[(1S,4R)-4-(3-piperidin-1-yl-[1,2,4]triazolo[4,3-a]pyridin-6-yloxy)-1,2,3,4-tetrahydro-naphthalen-1-yl]-urea] | < 10 nM
< 10 nM | Cc1ccc(-n2nc(C(C)(C)C)cc2NC(=O)N[C@H]2CC[C@@H](Oc3ccc4nnc(N5CCCC5)n4c3)c3ccccc32)cc1 [Example 75, 1-(5-tert-Butyl-2-p-tolyl-2H-pyrazol-3-yl)-3-[(1S,4R)-4-(3-pyrrolidin-1-yl-[1,2,4]triazolo[4,3-a]pyridin-6-yloxy)-1,2,3,4-tetrahydro-naphthalen-1-yl]-urea] | < 10 nM
< 10 nM | COc1c(NC(=O)N[C@H]2CC[C@@H](Oc3ccc4nnc([C@@H]5CCCN5C)n4c3)c3ccccc32)cc(C(C)(C)C)cc1NS(C)(=O)=O [Example 109, N-[5-tert-Butyl-2-methoxy-3-(3-{(1S,4R)-4-[3-((S)-1-methyl-pyrrolidin-2-yl)-[1,2,4]triazolo[4,3-a]pyridin-6-yloxy]-1,2,3,4-tetrahydro-naphthalen-1-yl}-ureido)-phenyl]-methanesulfonamide formate salt] | < 10 nM
< 10 nM | CC(C)(C)c1cc(NC(=O)N[C@H]2CC[C@@H](Oc3ccc4nnc(N5CCCCC5)n4c3)c3ccccc32)n(-c2cccc(CO)c2)n1 [Example 29, 1-[5-tert-Butyl-2-(3-hydroxymethyl-phenyl)-2H-pyrazol-3-yl]-3-[(1S,4R)-4-(3-piperidin-1-yl-[1,2,4]triazolo[4,3-a]pyridin-6-yloxy)-1,2,3,4-tetrahydro-naphthalen-1-yl]-urea] | < 10 nM
< 10 nM | Cc1ccc(-n2nc(C(C)(C)C)cc2NC(=O)N[C@H]2CC[C@@H](Oc3ccc4nnc(N5CCCC[C@H]5C)n4c3)c3ccccc32)cc1 [Example 82, 1-(5-tert-Butyl-2-p-tolyl-2H-pyrazol-3-yl)-3-{(1S,4R)-4-[3-((R)-2-methyl-piperidin-1-yl)-[1,2,4]triazolo[4,3-a]pyridin-6-yloxy]-1,2,3,4-tetrahydro-naphthalen-1-yl}-urea] | < 10 nM
< 10 nM | COCC(=O)Nc1cc(O[C@H]2CC[C@H](NC(=O)Nc3cc(C(C)(C)C)nn3-c3ccc(C)cc3)c3ccccc32)ccn1 [Example 10, N-(4-{(1S,4S)-4-[3-(5-tert-Butyl-2-p-tolyl-2H-pyrazol-3-yl)-ureido]-1,2,3,4-tetrahydro-naphthalen-1-yloxy}-pyridin-2-yl)-2-methoxy-acetamide] | < 10 nM
< 10 nM | Cc1ccc(-n2nc(C(C)(C)C)cc2NC(=O)N[C@H]2CC[C@@H](Oc3ccc4nnc(N5CCCOCC5)n4c3)c3ccccc32)cc1 [Example 49, 1-(5-tert-Butyl-2-p-tolyl-2H-pyrazol-3-yl)-3-[(1S,4R)-4-(3-[1,4]oxazepan-4-yl-[1,2,4]triazolo[4,3-a]pyridin-6-yloxy)-1,2,3,4-tetrahydro-naphthalen-1-yl]-urea] | < 10 nM
< 10 nM | Cc1ccc(-n2nc(C(C)(C)C)cc2NC(=O)N[C@H]2CC[C@@H](Oc3ccc4nnc(N5CC[C@H](O)C5)n4c3)c3ccccc32)cc1 [Example 26, 1-(5-tert-Butyl-2-p-tolyl-2H-pyrazol-3-yl)-3-{(1S,4R)-4-[3-((S)-3-hydroxy-pyrrolidin-1-yl)-[1,2,4]triazolo[4,3-a]pyridin-6-yloxy]-1,2,3,4-tetrahydro-naphthalen-1-yl}-urea] | < 10 nM
< 10 nM | CC(C)(C)c1cc(NC(=O)N[C@H]2CC[C@@H](Oc3ccc4nnc(N5CCCCC5)n4c3)c3ccccc32)n(-c2cccc(OCCO)c2)n1 [Example 39, 1-{5-tert-Butyl-2-[3-(2-hydroxy-ethoxy)-phenyl]-2H-pyrazol-3-yl}-3-[(1S,4R)-4-(3-piperidin-1-yl-[1,2,4]triazolo[4,3-a]pyridin-6-yloxy)-1,2,3,4-tetrahydro-naphthalen-1-yl]-urea] | < 10 nM
< 10 nM | Cc1ccc(-n2nc(C(C)(C)C)cc2NC(=O)N[C@H]2CC[C@@H](Oc3ccc4nnc(N5CCC(CCO)CC5)n4c3)c3ccccc32)cc1 [Example 66, 1-(5-tert-Butyl-2-p-tolyl-2H-pyrazol-3-yl)-3-{(1S,4R)-4-[3-(4-hydroxyethyl-piperidin-1-yl)-[1,2,4]triazolo[4,3-a]pyridin-6-yloxy]-1,2,3,4-tetrahydro-naphthalen-1-yl}-urea] | < 10 nM
< 10 nM | Cc1ccc(-n2nc(C(C)(C)C)cc2NC(=O)N[C@H]2CC[C@@H](Oc3ccc4nnc([C@H]5CCCN5)n4c3)c3ccccc32)cc1 [Example 12, 1-(5-tert-Butyl-2-p-tolyl-2H-pyrazol-3-yl)-3-[(1S,4R)-4-((R)-3-pyrrolidin-2-yl-[1,2,4]triazolo[4,3-a]pyridin-6-yloxy)-1,2,3,4-tetrahydro-naphthalen-1-yl]-urea] | < 10 nM
< 10 nM | CN1CCCC[C@H]1c1nnc2ccc(O[C@@H]3CC[C@H](NC(=O)Nc4cc(C(C)(C)C)nn4CCO)c4ccccc43)cn12 [Example 120, 1-[5-tert-Butyl-2-(2-hydroxy-ethyl)-2H-pyrazol-3-yl]-3-{(1S,4R)-4-[3-((S)-1-methyl-piperidin-2-yl)-[1,2,4]triazolo[4,3-a]pyridin-6-yloxy]-1,2,3,4-tetrahydro-naphthalen-1-yl}-urea] | < 10 nM
